Results from patent US20250059179A1, “Heterocyclic Compounds and Methods of Use” (AMGEN INC., priority 2021, published 2025).
pIC50: −log10 of the molar value.

Assays:
[1] = target: His-tagged KRAS G12D protein (Homo sapiens, UniProt P01116, G12D); assay: KRAS G12D TR-FRET Assay; type: binding; conditions: biotinylated KRPep-2d substrate, 10 μM GDP;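 further: europium anti-His antibody paired with streptavidin-d2 as FRET partners, initial 30 min incubation, then peptide 1 h and detection reagents 1 h, all at room temperature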
[2] = target: GDP-bound KRAS protein (aa 1-169), containing both G12D and C118A amino acid substitutions (Homo sapiens, UniProt P01116, C118A/G12D); assay: KRAS G12D Coupled Nucleotide Exchange Assay; type: biochemical; conditions: 2 h compound pre-incubation; SOS-mediated nucleotide exchange, cRAF AlphaScreen readout;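 further: IC50 obtained by fitting the AlphaScreen signal with a four-parameter logistic curve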
GDP-bound KRAS protein (aa 1-169), containing both G12D and C118A amino acid substitutions, sequence (P01116 1-169 isoform P01116-2 G12D/C118A): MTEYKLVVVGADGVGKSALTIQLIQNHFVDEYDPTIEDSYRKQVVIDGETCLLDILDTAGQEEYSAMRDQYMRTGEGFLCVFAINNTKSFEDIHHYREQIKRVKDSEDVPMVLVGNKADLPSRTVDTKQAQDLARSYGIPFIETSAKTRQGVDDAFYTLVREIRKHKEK

His-tagged KRAS G12D protein, sequence (P01116 1-188 isoform P01116-2 G12D): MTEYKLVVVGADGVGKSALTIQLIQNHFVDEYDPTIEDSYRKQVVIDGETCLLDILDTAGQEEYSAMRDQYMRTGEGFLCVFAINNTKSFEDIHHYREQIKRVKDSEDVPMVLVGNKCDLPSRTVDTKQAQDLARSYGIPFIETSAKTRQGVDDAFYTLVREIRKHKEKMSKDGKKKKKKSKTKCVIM

SMILES	pIC50 [1]	Avg 2 h Coupled Exchange IC50 [2] [nM]
Nc1nc2c(-c3c(F)cc4c(N5[C@@H]6CC[C@H]5CNC6)nc(OC[C@@]56CCCN5C[C@H](F)C6)nc4c3F)ccc(F)c2s1 [Example 142, 4-(4-((1R,5S)-3,8-diazabicyclo[3.2.1]octan-8-yl)-6,8-difluoro-2-(((2R,7aS)-2-fluorotetrahydro-1H-pyrrolizin-7a(5H)-yl)methoxy)quinazolin-7-yl)-7-fluorobenzo[d]thiazol-2-amine]	8.40	7
CN1C[C@H](F)C[C@H]1COc1nc2c(F)c(-c3ccc(F)c4sc(N)nc34)c(Cl)cc2c(N2[C@@H]3CC[C@H]2CNC3)c1C#N [Example 160, 7-(2-amino-7-fluorobenzo[d]thiazol-4-yl)-4-((1R,5S)-3,8-diazabicyclo[3.2.1]octan-8-yl)-6-chloro-8-fluoro-2-(((2S,4R)-4-fluoro-1-methylpyrrolidin-2-yl)methoxy)quinoline-3-carbonitrile]	6.05	578
CN1C[C@@H](F)C[C@H]1COc1nc(N2CCNCC2)c2cc(Cl)c(-c3cccc4sc(N)nc34)c(F)c2n1 [Example 62, 4-(6-chloro-8-fluoro-2-(((2S,4S)-4-fluoro-1-methyl-pyrrolidin-2-yl)methoxy)-4-(piperazin-1-yl)quinazolin-7-yl)benzo[d] thiazol-2-amine]	6.17	394
Cc1c(-c2ccc(F)c3sc(N)nc23)ccc2c(N3C[C@H]4CC[C@@H](C3)N4)nc(OC[C@@]34CCCN3C[C@H](F)C4)nc12 [Example 139, 4-(4-((1R,5S)-3,8-diazabicyclo[3.2.1]octan-3-yl)-2-(((2R,7aS)-2-fluorotetrahydro-1H-pyrrolizin-7a(5H)-yl)methoxy)-8-methylquinazolin-7-yl)-7-fluorobenzo[d]thiazol-2-amine]	7.96	3
CC1CNCC=C1c1nc(OC[C@@H]2CCCN2C)nc2c(F)c(-c3cccc4sc(N)nc34)c(Cl)cc12 (single isomer, unassigned) [Example 146]	5.39	1560
CN1CCC[C@H]1COc1nc2c(F)c(-c3ccc(F)c4sc(N)nc34)c(Cl)cc2c(N2CCNCC2)c1C#N [Example 157, 7-(2-Amino-7-fluorobenzo[d]thiazol-4-yl)-6-chloro-8-fluoro-2-(((S)-1-methylpyrrolidin-2-yl)methoxy)-4-(piperazin-1-yl)quinoline-3-carbonitrile]	7.14	23
Nc1nc2c(-c3c(Cl)cc4c(N5CCNCC5)nc(OCC56CCCN5CCC6)nc4c3F)cccc2s1 [Example 44, 4-(6-chloro-8-fluoro-4-(piperazin-1-yl)-2-((tetrahydro-1H-pyrrolizin-7a(5H)-yl)methoxy)quinazolin-7-yl)benzo[d] thiazol-2-amine]	7.52	14
CN1CCCC[C@H]1COc1nc(N2CCNCC2)c2cc(Cl)c(-c3cccc4sc(N)nc34)c(F)c2n1 [Example 64, 4-(6-chloro-8-fluoro-2-(((S)-1-methyl-piperidin-2-yl)methoxy)-4-(piperazin-1-yl)quinazolin-7-yl)benzo[d] thiazol-2-amine]	5.92	446
CN1C[C@H](F)C[C@H]1COc1nc(N2CCCNC(=O)C2)c2cc(Cl)c(-c3ccc(F)c4sc(N)nc34)c(F)c2n1 [Example 19, 4-(7-(2-amino-7-fluorobenzo[d]thiazol-4-yl)-6-chloro-8-fluoro-2-(((2S,4R)-4-fluoro-1-methylpyrrolidin-2-yl)methoxy)quinazolin-4-yl)-1,4-diazepan-2-one]	7.07	62
Cc1cc2c(N3CCNCC3)nc(OC[C@@H]3CCCN3C)nc2c(F)c1-c1cccc2sc(N)nc12 [Example 155, 4-(8-Fluoro-6-methyl-2-(((S)-1-methylpyrrolidin-2-yl)methoxy)-4-(piperazin-1-yl)quinazolin-7-yl)benzo[d]thiazol-2-amine]	6.73	40
CN1CCC[C@H]1COc1nc(N2C3CCC2C(=O)NC3)c2cc(Cl)c(-c3cccc4sc(N)nc34)c(F)c2n1 (stereo partly drawn) [Example 82, 8-(7-(2-aminobenzo[d]thiazol-4-yl)-6-chloro-8-fluoro-2-(((S)-1-methylpyrrolidin-2-yl)methoxy)quinazolin-4-yl)-3,8-diazabicyclo[3.2.1]octan-2-one]		471
Nc1nc2c(-c3c(Cl)cc4c(N5CCNCC5)nc(N5CC(N6C[C@H]7COC[C@@H](C6)N7)C5)nc4c3F)cccc2s1 [Example 87, 4-(2-(3-((1R,5S)-3-oxa-7,9-diazabicyclo[3.3.1]nonan-7-yl)azetidin-1-yl)-6-chloro-8-fluoro-4-(piperazin-1-yl)quinazolin-7-yl)benzo[d]thiazol-2-amine]		701
CON(C)C1CN(c2nc(N3CCNCC3)c3cc(Cl)c(-c4cccc5sc(N)nc45)c(F)c3n2)C1 [Example 104, 4-[6-chloro-8-fluoro-2-[3-[methoxy(methyl)amino]azetidin-1-yl]-4-piperazin-1-yl-quinazolin-7-yl]-1,3-benzothiazol-2-amine]		1730
CNC1CCN(c2nc(N3CCNCC3)c3cc(Cl)c(-c4cccc5sc(N)nc45)c(F)c3n2)C1 (stereo not shown) [Example 97, 4-[6-chloro-8-fluoro-4-piperazin-1-yl-2-[3-(methylamino)pyrrolidin-1-yl]quinazolin-7-yl]-1,3-benzothiazol-2-amine]		1270
Nc1nc2c(-c3c(Cl)cc4c(N5CCNCC5)nc(NCC(O)c5cncs5)nc4c3F)cccc2s1 (stereo not shown) [Example 106, 2-[[7-(2-amino-1,3-benzothiazol-4-yl)-6-chloro-8-fluoro-4-piperazin-1-yl-quinazolin-2-yl]amino]-1-thiazol-5-yl-ethanol]		1900
CN1C(=O)CC2(CN(c3nc(N4CCNCC4)c4cc(Cl)c(-c5cccc6sc(N)nc56)c(F)c4n3)C2)n2ccnc21 [Example 113, 1′-[7-(2-amino-1,3-benzothiazol-4-yl)-6-chloro-8-fluoro-4-piperazin-1-yl-quinazolin-2-yl]-8-methyl-spiro[6H-imidazo[1,2-a]pyrimidine-5,3′-azetidine]-7-one]		2480
CN1CCCC2C1CCN2c1nc(N2CCNCC2)c2cc(Cl)c(-c3cccc4sc(N)nc34)c(F)c2n1 (stereo not shown) [Example 99, 4-(6-chloro-8-fluoro-2-(4-methyloctahydro-1H-pyrrolo[3,2-b]pyridin-1-yl)-4-(piperazin-1-yl)quinazolin-7-yl)benzo[d]thiazol-2-amine]		1400
Nc1nc2c(-c3c(Cl)cc4c(N5CCNCC5)nc(N5CC(n6ccnc6)C5)nc4c3F)cccc2s1 [Example 116, 4-[6-chloro-8-fluoro-2-(3-imidazol-1-ylazetidin-1-yl)-4-piperazin-1-yl-quinazolin-7-yl]-1,3-benzothiazol-2-amine]		3110
CC1(C)CN(C2CN(c3nc(N4CCNCC4)c4cc(Cl)c(-c5cccc6sc(N)nc56)c(F)c4n3)C2)CCO1 [Example 117, 4-[6-chloro-2-[3-(2,2-dimethylmorpholin-4-yl)azetidin-1-yl]-8-fluoro-4-piperazin-1-yl-quinazolin-7-yl]-1,3-benzothiazol-2-amine]		3320
Nc1nc2c(-c3c(Cl)cc4c(N5CCNCC5)nc(N5CC6(C5)NCC6(F)F)nc4c3F)cccc2s1 [Example 118, 4-[6-chloro-2-(3,3-difluoro-1,6-diazaspiro[3.3]heptan-6-yl)-8-fluoro-4-piperazin-1-yl-quinazolin-7-yl]-1,3-benzothiazol-2-amine]		3370
Nc1nc2c(-c3c(Cl)cc4c(N5CCNCC5)nc(N5C[C@@H]6NCC[C@H]65)nc4c3F)cccc2s1 [Example 93, 4-[6-chloro-2-[(1S,5R)-2,6-diazabicyclo[3.2.0]heptan-6-yl]-8-fluoro-4-piperazin-1-yl-quinazolin-7-yl]-1,3-benzothiazol-2-amine]		1140
Nc1nc2c(-c3c(Cl)cc4c(N5CCNCC5)nc(N5CC(N6CCC(O)CC6)C5)nc4c3F)cccc2s1 [Example 83, 1-[1-[7-(2-amino-1,3-benzothiazol-4-yl)-6-chloro-8-fluoro-4-piperazin-1-yl-quinazolin-2-yl]azetidin-3-yl]piperidin-4-ol]		496
Nc1nc2c(-c3c(Cl)cc4c(N5CCNCC5)nc(N5CC(N6CCCCC6)C5)nc4c3F)cccc2s1 [Example 78, 4-[6-chloro-8-fluoro-4-piperazin-1-yl-2-[3-(1-piperidyl)azetidin-1-yl]quinazolin-7-yl]-1,3-benzothiazol-2-amine]		280
Nc1nc2c(-c3c(Cl)cc4c(N5CCNCC5)nc(N5C[C@@H]6NCC[C@@H]65)nc4c3F)cccc2s1 [Example 115, 4-[6-chloro-2-[(1S,5S)-2,6-diazabicyclo[3.2.0]heptan-6-yl]-8-fluoro-4-piperazin-1-yl-quinazolin-7-yl]-1,3-benzothiazol-2-amine]		2860
Nc1nc2c(-c3c(Cl)cc4c(N5CCNCC5)nc(N5CC6(CCNC6)C5)nc4c3F)cccc2s1 [Example 120, 4-[6-chloro-2-(2,7-diazaspiro[3.4]octan-2-yl)-8-fluoro-4-piperazin-1-yl-quinazolin-7-yl]-1,3-benzothiazol-2-amine]		3900
CC1(O)CN(C2CN(c3nc(N4CCNCC4)c4cc(Cl)c(-c5cccc6sc(N)nc56)c(F)c4n3)C2)C1 [Example 86, 1-[1-[7-(2-amino-1,3-benzothiazol-4-yl)-6-chloro-8-fluoro-4-piperazin-1-yl-quinazolin-2-yl]azetidin-3-yl]-3-methyl-azetidin-3-ol]		648
CN(C1CN(c2nc(N3CCNCC3)c3cc(Cl)c(-c4cccc5sc(N)nc45)c(F)c3n2)C1)[C@@H]1CCOC1 [Example 89]		895
